Measured values from US20250034161A1, “SPIROCYCLIC COMPOUND AS KRAS-G12C INHIBITOR” (Shanghai Euregen Biopharma Co., Ltd., priority 2020, published 2025).
Like-named read-outs stand apart in the source and are kept apart here.

Test system: NCI-H358 cells
Assay: Inhibitory effect on proliferation of NCI-H358 cells (CellTiter-Glo, 72 h)
Type: cell-based, human
Excerpt: Inhibitory effect of compounds on the proliferation of […] cells • 1. Experimental principle: NCI-H358 cell is human non-small cell lung cancer cell line expressing KRAS G12C. […] Test materials: NCI-H358 cells were purchased from ATCC; CellTiter-GloR was purchased from Promega (item: G7571); RPMI-1640 was purchased from ATCC (item: 30-2001): fetal bovine serum (FBS) was purchased from EXCELL (item: FND500); Penicillin-streptomycin was purchased from Gibco (item: 15140-122); 0.25% trypsin-ethylenediaminetetraacetic acid digestive juice (Trypsin-EDTA) was purchased from Gibco (item: 25200-072); dimethyl sulfoxide (DMSO) was purchased from Sigma (item: D2650); 96-well plate was purchased from Corning (item: 3610); Incubator was purchased from Thermo (model: 3111); Inverted microscope was purchased from Nikon (item: TS-100); Automatic cell counter was purchased from Life technologies (model: Countess II); Enzyme plate reader was purchased from PerkinElmer (model: Envision); The data processing software was GraphPad Prism 5.0. • 3. Test method:
Cells in logarithmic growth phase were resuspended in growth medium (RPMI-1640+10% FBS) and diluted to target density ([…]). The above cell suspension was inoculated into 96-well plates at 100 μL per well; incubated overnight in a 37° C., 5% CO2 incubator. Medium was used as background control.
The test compound was dissolved in DMSO to prepare a stock solution at a concentration of 10 mmol/L. The stock solution was first diluted to 2 mmol/L with DMSO, and then diluted in 3-fold gradient for a total of 10 concentrations. 3 μL of each concentration of the above solution was taken and diluted with 197 μL of growth medium. […] at 50 μL/well in the 96-well plate. The cells to which the test compound was added were incubated in a 37° C., 5% CO2 incubator for 72 hours. The 96-well plate was equilibrated at room temperature, and 40 μL CellTiter-Glo reagent was added to each well. Then, the plate was mixed on the vortex for 2 minutes, incubated at room temperature for 60 minutes. The luminescence value was read on an EnVision microplate reader, and the IC50 of the compound was calculated using the GraphPad Prism 5.0 software.

IC50 (Homo sapiens) [nM] | IC50 [nM] | SMILES
– | 100 to 1000 | CN(C)C/C=C/C(=O)N1CCN(c2nc(OC[C@@H]3CCCN3C)nc3c2CN(C)C2(CCc4cccc(F)c42)C3)C[C@@H]1CC#N (stereo partly shown) [Formate of 15]
– | < 100 | C=CC(=O)N1CCN(c2nc(OC[C@@H]3CCCN3C)nc3c2CN(C)C2(CCc4cccc(Cl)c42)C3)C[C@@H]1CC#N (stereo partly shown) [Formate of 18]
– | < 100 | C=CC(=O)N1CCN(c2nc(OC[C@@H]3CCCN3C)nc3c2CN(C)C2(CCCc4ccccc42)C3)C[C@@H]1CC#N (stereo partly shown) [Formate of 20]
– | 100 to 1000 | C=CC(=O)N1CCN(c2nc(OC[C@@H]3CCCN3C)nc3c2CN(C)C2(CCOc4ccccc42)C3)C[C@@H]1CC#N (stereo partly shown) [Formate of 22]
– | 100 to 1000 | C=CC(=O)N1CCN(c2nc(OC[C@@H]3CCCN3C)nc3c2CN(C)C2(CCc4c(OC)cccc42)C3)C[C@@H]1CC#N (stereo partly shown) [Formate of 24]
– | < 100 | C=CC(=O)N1CCN(c2nc(OC[C@@]34CCCN3C[C@H](F)C4)nc3c2CN(C)C2(CCc4cccc(Cl)c42)C3)C[C@@H]1CC#N (stereo partly shown) [Formate of 34]

Second part, the compound before the results:

SMILES | IC50 (Homo sapiens) [nM] | IC50 [nM]
C=CC(=O)N1CCN(c2nc(OCC3CCCN3C)nc3c2CN(C)C2(CCc4ccccc42)C3)CC1 (stereo not shown) [Compound 1] | 1000 to 10000 | –
C=CC(=O)N1CCN(c2nc(OC[C@@H]3CCCN3C)nc3c2CN(C)C2(CCc4ccc(Cl)cc42)C3)C[C@@H]1CC#N (stereo partly shown) [Compound 5] | 100 to 1000 | –
CN1CCC[C@H]1COc1nc2c(c(N3CCN(C(=O)/C=C/CF)[C@@H](CC#N)C3)n1)CN(C)C1(CCc3ccccc31)C2 (stereo partly shown) [Compound 14] | – | 1000 to 10000
C=C(F)C(=O)N1CCN(c2nc(OC[C@@]34CCCN3C[C@H](F)C4)nc3c2CN(C)C2(CCc4cccc(Cl)c42)C3)C[C@@H]1CC#N (stereo partly shown) [Compound 35] | < 100 | –
C=CC(=O)N1CCN(c2nc(OC[C@@H]3CCCN3C)nc3c2CN(C)C2(CCc4ccccc42)C3)[C@@H](C)C1 (stereo partly shown) [Formate of 4] | – | 1000 to 10000
C=CC(=O)N1CCN(c2nc(OC[C@@H]3CCCN3C)nc3c2CNC2(CCc4cccc(F)c42)C3)C[C@@H]1CC#N (stereo partly shown) [Formate of 10] | – | 100 to 1000
C=CC(=O)N1CCN(c2nc(OC[C@@H]3CCCN3C)nc3c2CN(C)C2(CCc4ccc(F)cc42)C3)C[C@@H]1CC#N (stereo partly shown) [Formate of 11] | – | 1000 to 10000
